{"source": "patent US7645882B2", "about": "“Inhibitor of protein modification products formation” (priority 2003, dated 2010)", "key": {"pentosidine": {"test_system": "pentosidine", "assay": "Pentosidine formation inhibiting effect in plasma of hemodialysis patients", "type": "biochemical, human", "conditions": "plasma from hemodialysis patients, final concentration 0.8, 2.0, 5.0 mM, 37° C. for one week; compared to pyridoxamine as positive control", "protocol": "Fresh heparinized plasma samples were obtained after informed consent from hemodialysis patients prior to the dialysis session, and filtrated and sterilized. To the plasma (450 μL), there was added the solution of TM-2002 in dimethylsurphoxide (50 μL) (final concentration: 0.8, 2.0, 5.0 mM) incubated at 37° C. for one week. Then, the amount of pentosidine was measured.\nMeasurement of the amount of pentosidine was made as follows: to each incubated sample (50 μL) was added an equal volume of 10% trichloroacetic acid, followed by centrifugation at 5000 g for 5 minutes; after removal of the supernatant, the pellet was washed by 5% trichloroacetic acid (300 μL); the pellet was dried under reduced pressure and then subjected to hydrolysis in 6N HCl solution (100 μL) at 110° C. under nitrogen atmosphere for 16 hours; to the hydrolysate, 5N NaOH (100 μL) and 0.5 M phosphate buffer (pH 7.4) (200 μL) were added, followed by filtration through a porefilter with a pore size of 0.5 μm and dilution with PBS. The concentration of free pentosidine was determined by reversed-phase HPLC using a fluorescence detector (Miyata, T. et al.: Proc. Natl. Acad. Sci. USA, Vol. 93, p. 2353-2358, 1996). The effluent was monitored at 335/385 nm of excitation/emission wavelength. Synthetic pentosidine was used as the standard. The detection limit of pentosidine was 0.1 pmol/mg protein. […]"}, "[1]": {"test_system": "Thy-1 nephritis model rat", "assay": "Renal protective effect on Thy-1 nephritis model rat", "type": "in vivo", "conditions": "50 mg/kg twice daily by sonde, 5 days", "protocol": "1.2 mg/kg of OX-7, anti Thy-1 antibody, was administered to wistar rat (male, body weight 150 g, 6 weeks aged) in caudal vein to prepare typical glomerulonephritis model with mesangial nephritis. After the administration of anti Thy-1 antibody, test compound (TM-2002, 50 mg/kg body weight, twice a daily) was suspended in 0.5% carboxymethylcellulose, was coercively administered 5 days continuously using sonde, on sixth day sampled, kidney was obtained, and analysed pathologically (count the number of glomerular cells). In particular, cells were stained by PAS according to conventional method, the stained image was captured by 3CCD camera (Olympus), and then analyzed using softwares, Image Graver PCI (FUJI shashin film) and Mac Aspect (Mitani kabushiki kaisha). Also, biochemical analysis of blood and urine was carried out (contract clinical analysis organization: SRL)."}, "GRP78": {"test_system": "GRP78", "assay": "ER stress inducing molecule expression in RIN-5F cells, western blot, GRP78", "type": "cell-based, rat", "conditions": "TM-2002 200 μM, 50 μM and tunicamycin co-added", "protocol": "Rat pancreatic β cell line (RIN-5F) was seeded in 6 well culture plate to 1.0×10^5 cells/well, and after 24 hours, TM-2002 in DMSO (200 mM, 50 mM) were added to be final concentration 200 μM, 50 μM. After another 1 hour, 0.2 μl of tunicamycin (Sigma) in methanol(1 mg/ml) was added. After culturing 8 hours, the cells were washed 2 ml of PBS(+) twice, and the cells were dissolved in 100 μl of lysate (50 mM Tris-HCl (pH 7.5), 150 mM NaCl, 100 mM NaF, 100 mM sodium phosphate (pH 7.4), 2 mM Na3VO4, 0.1% protease inhibitor cocktail (Sigma), 1% Triton X-100). To remove the insoluble fraction of this lysate, centrifuged at 12,000×g for 10 minutes and obtained the supernatant to give cell extract. The extract was quantified its protein concentration using DC protein assay kit (Bio Rad), and each samples (1 μg) was electrophoresed by SDS-PAGE and transferred to PVDF membrane. The membrane was blocked with 5% skimmed milk/0.1% Tween20-TBS for 1 hour at room temperature, and reacted with anti-ORP150 antibody in 5% skimmed milk/0.1% Tween20-TBS (2000 folds: specific antibody), anti-GRP78 antibody (Santa Cruz) in 5% skimmed milk/0.1% Tween20-TBS (100 folds) and anti-actin antibody (Sigma) in 5% skimmed milk/0.1% Tween20-TBS (200 folds) for 2 hours. […] The detected signal was analyzed by Lane analyzer (ATTO) and calculated the signal strength. […]"}}}
{"smiles": "Cc1ncc2c(c1O)C(c1c(C)nn(-c3ccccc3)c1O)OC2", "note": "(centres unmarked) [compound 68, 1-(5-hydroxy-3-methyl-1-phenyl-1H-pyrazol-4-yl)-6-methyl-1,3-dihydro-furo[3,4-c]pyridin-7-ol]", "values": [{"measurement": "pentosidine formation inhibiting effect", "setting": "pentosidine", "value": "inhibits significantly pentosidine formation compared to pyridoxamine"}, {"measurement": "BUN value", "setting": "[1]; sampled on sixth day", "value": "improved"}, {"measurement": "urinary protein", "setting": "[1]; sampled on sixth day", "value": "improved"}, {"measurement": "number of glomerular cells", "setting": "[1]; p<0.0001", "value": "significantly suppressed"}, {"measurement": "hyperexpression of GRP78", "setting": "GRP78", "value": "suppressed"}]}
